Legend:
H1975 cells = test: 7-AAD / annexin V cell death staining; format: cell-based; details: 0.7 μM, 72 hours
Method: To verify the mechanism of the loss of cell viability, H1975 cells were treated with MPC-0767 (0.7 μM) for 72 hours. After this time, cells were stained with 7-amino-actinomycin D (7-AAD) and annexin V, markers of cell membrane integrity and of apoptosis, respectively.

[1] = system: primary AML samples harboring FLT3-ITD; test: Annexin V / 7AAD cell death by flow cytometry; format: cell-based, human; details: increasing concentrations, 72 hours, 4 primary samples
Method: To test whether the anti-leukemic effect of MPC-0767 is due to induction of cell death, 4 primary AML samples (all harboring FLT3-ITD) were treated with increasing concentrations of MPC-0767 for 72 hours. Samples were then processed for quantification by flow cytometry of cells positive for annexin V and 7AAD. These markers allow the detection of cell death, specifically dead (7AAD only positive), early apoptotic (annexin V only positive) or late stage apoptotic/necrotic (7AAD and annexin V positive) populations were combined to give a readout of cell death.

MOLM-13-LUC cells = test: CellTiter-Glo cell viability; format: cell-based; details: Homo sapiens, 72 hours
From the text: (§1) In the clinic, tyrosine kinase inhibitors that target FLT3 initially show positive responses, but patients inevitably relapse due to the development of drug-resistance through various mechanisms, as discussed above.

[2] = system: MOLM-13-R-PKC412 (midostaurin-resistant) cells; test: CellTiter-Glo cell viability; format: cell-based, human
From the text: as §1

[3] = system: cell surface FLT3 in MV-4-11 cells; test: Cell surface FLT3 by flow cytometry; format: cell-based; details: MV-4-11, 1 μM, 24 hours
Method: (§2) To determine whether MPC-0767 can promote the degradation of FLT3-ITD and abolish downstream signaling, MV-4-11 and MOLM-13 cells were treated with vehicle or MPC-0767 (1 μM) for 24 hours. Cells were harvested for flow cytometry to assess cell surface FLT3 protein abundance. In addition, the measurement of a key phosphorylation site of S6 (phospho-S6) was used as a marker for oncogenic FLT3-ITD signaling (Zimmerman et al., Blood. 2013 122(22): 3607-3615). Indeed, in both MV-4-11 and MOLM-13 cells treated with MPC-0767 there was a >65% reduction in cell surface FLT3 (FIGS. 10A and 10B, respectively) and >70% reduction in phospho-S6 (FIGS. 10C and 10D, respectively).

[4] = system: cell surface FLT3 in MOLM-13 cells; test: Cell surface FLT3 by flow cytometry; format: cell-based, human; details: 24 hours
Method: as §2
(§3) We next explored whether the synergistic activity of MPC-0767 and ATO was due to a more complete abrogation of FLT3-ITD oncogenic signaling. […] After this time cells were harvested for the assessment of cell surface FLT3 expression by flow cytometry. To additionally measure the effects of abrogating FLT3, we assessed phospho-ERK (pERK) and phospho-S6 (pS6), as these are two known downstream effectors.

[5] = system: phospho-S6 in MV-4-11 cells; test: Phospho-S6 by flow cytometry; format: cell-based; details: MV-4-11, 1 μM, 24 hours
Method: as §2

[6] = system: phospho-ERK (pERK) in MOLM-13 cells; test: Phospho-ERK level; format: cell-based, human; details: MPC-0767 800 nM, ATO 625 nM or combination, 24 hours
From the text: as §3

OCIAML3 cells = test: CellTiter-Glo cell viability; format: cell-based; details: OCIAML3, 72 h
HL60 (HL-60) cells = test: CellTiter-Glo cell viability (single agent and combination); format: cell-based; details: HL60, 72 h
ME1 (ME-1) cells = test: as above; format: cell-based; details: ME1, 72 h
OCI-AML2 AML cell line = test: In vitro T-cell-mediated killing assay (active caspase-3); format: cell-based; details: MPC-0767 2 μM overnight, then pp65 enriched CD8+ T cells 4 hours
Method: The ability of MPC-0767 to increase T cell killing was determined in an in vitro T-cell-mediated killing assay. The OCI-AML2 AML cell line was labeled with the cell staining dye CFSE and treated overnight with MPC-0767 (2 μM) and human cytomegalovirus pp65495-503 peptide. […] After 4 hours of co-culture, cells were harvested, fixed, permeabilized, and stained for the active form of caspase-3 as a direct read-out of apoptotic cell death.
The CI is a quantitative measure used to determine whether the combined effect of a drug pair is synergistic, additive, or antagonistic. The CI is calculated as CI=(E1+E2)/E12, where E12 is a normalized biological response (e.g., % Caspase-3+ cells) for the combination of Drug A and Drug B, and E1 and E2 are the response measured for each single drug treatment, respectively. CI values less than 1 indicate synergy, with the magnitude of the effect indicated by how much less than 1 the synergy score is. A more detailed mathematical treatment of this relationship is described in Shin et al. 2018.

PD-L1 on THP-1 cells = test: PD-L1 expression on THP-1 cells by flow cytometry; format: cell-based; details: IFNγ overnight with MPC-0767 1 μM or 2 uM
From the text: FIG. 29A-D: MPC-0767 repression of PD-L1 expression increases T cell activation. Bar graphs show activation of Jurkat reporter cells with anti-CD3 (A) and PD-L1-dependent inhibition of T cell activation after IFNγ treatment (B). Bars in A&B represent the mean +/− SD of triplicate wells and are representative of three independent experiments. […] Bars in C&D represent the mean +/− SD of three independent experiments.
We next determined whether MPC-0767 reduction of PD-L1 could increase T cell stimulation similar to anti-PD-L1 blocking antibodies. THP-1 cells were treated overnight with IFNγ in the presence or absence of MPC-0767 (1 μM or 2 uM). THP-1 cells were washed and a portion saved for flow cytometry analysis of PD-L1 expression. The remaining cells were incubated with Jurkat reporter cells and anti-CD3 (10 ng/ml) for 6 hours.

[7] = system: murine MC38 colon cancer cell line; test: MC38 syngeneic tumor model
From the text: Tumor size (mm^3), P=0.01 (Student t-test) (A) and percent body weight change (B) are shown.
When the mean tumor volume reached 73 mm^3 in size, mice were randomized into 2 groups of 6. […] Tumor measurements (caliper) were taken on the indicated days. […] Student t-test was used to evaluate the statistical significance of the difference between these groups, P=0.01.

[8] = system: MOLM-13 FLT3-ITD AML cell line; test: Systemic survival xenograft study, MPC-0767 single agent; details: vs vehicle
Method: Statistical significance was calculated using Log Rank (Mantel-Cox) test.
Before tumor cell inoculation, NOD/SCID mice were pre-treated for 2 days with a daily intraperitoneal injection of 100 mg/kg cyclophosphamide to facilitate engraftment of the human MOLM-13 tumor cells. After the injection of cyclophosphamide, the animals were allowed to recover for 24 hours prior to inoculation with human MOLM-13 tumor cells. Each mouse was then inoculated with 1×10^7 MOLM-13 cells in 100 μL PBS via intravenous tail vein injection. Mice were next randomized into 3 groups of 6. […] Viability and body weight loss were monitored daily.

In the case of `C[C@H](N)C(=O)O[C@@H](C)C(=O)N1CCC(CCn2c(Sc3cc4c(cc3Br)OCO4)nc3c(N)ncnc32)CC1` [MPC-0767], the “percentage of cells displaying markers of cell death” value (H1975 cells) is reported as “increase”, the “percentage of viable cells (7-AAD negative and annexin V negative)” value (H1975 cells) is reported as “decrease” and the “cell death (annexin V and/or 7AAD positive)” value [1] is reported as “dose-dependent increase in cell death”. The EC50 (MOLM-13-LUC cells) was 496 nM, the EC50 ([2]; Homo sapiens, MOLM-13-R-PKC412, 72 hours) was 727 nM and the “fold difference in EC50, midostaurin-resistant vs control cells” value ([2]; MOLM-13-R-PKC412 vs MOLM-13-LUC) was “less than 1.5 fold”. The “reduction in cell surface FLT3” value [3] was over 65%, the “reduction in cell surface FLT3” value ([4]; MOLM-13, 1 μM) was over 65% and the “FLT3 level (cell surface)” value ([4]; MOLM-13, MPC-0767 800 nM, ATO 625 nM or combination) was “reduced”. For the same compound, the “reduction in phospho-S6” value [5] was over 70%, the pERK level [6] was “mildly reduced” and the EC50 (OCIAML3 cells; Homo sapiens, OCI-AML-3) was 1810 nM. For the same compound, the “MPC-0767 Sensitivity” value (OCIAML3 cells) was “Resistant (EC50 values above 1 μM considered resistant)”, the “MPC-0767 Sensitivity” value (HL60 (HL-60) cells) was “Resistant (EC50 values above 1 μM considered resistant)” and the EC50 (HL60 (HL-60) cells; Homo sapiens, HL-60) was 1960 nM. The “MPC-0767 Sensitivity” value (ME1 (ME-1) cells) was “Resistant (EC50 values above 1 μM considered resistant)”, the EC50 (ME1 (ME-1) cells; ME-1) was 3420 nM and the “Combination Index (CI) for apoptotic (active caspase-3+) cells” value (OCI-AML2 AML cell line) was 0.53. The “PD-L1 expression on THP-1 cells” value (PD-L1 on THP-1 cells) was “dose-dependently reduced PD-L1 expression”, the “effect on body weight” value ([7]; oral 150 mg/kg QD×17) was “without significant effects on body weight” and the tumor growth inhibition ([7]; oral 150 mg/kg QD×17, P=0.01) was 69.5%. For the same compound, the “increase in median survival” value ([8]; 75 mg/kg once a day) was 1.5 days and the “increase in median survival” value ([8]; 150 mg/kg once a day) was 10 days.

Reference: patent US20200253979A1, “THERAPEUTIC METHODS RELATING TO HSP90 INHIBITORS” (AI Therapeutics, Inc., priority 2017, published 2020)
